# Data taken from US20250302866A1, “POLYMER AGENTS FOR CARDIOPULMONARY RESUSCITATION” (VIRGINIA COMMONWEALTH UNIVERSITY, priority 2019, published 2025).
# Assays:
# [1] = test system: rat model of cardiac arrest and cardiopulmonary resuscitation; assay: Coronary perfusion pressure, defibrillations and arrhythmia in a rat model of cardiac arrest and CPR; type: in vivo, Sprague-Dawley rats; conditions: mean±SD
# Experimental: (§1) Male Sprague-Dawley rats weighing 450-550 g were utilized in this study. After induction of anesthesia with inhalation of CO2 for about 30 seconds, the animals were anesthetized by intraperitoneal injection of pentobarbital (45 mg/kg). Additional doses (10 mg/kg) were administered when required to maintain anesthesia. After no response to stimuli, the animals were shaved. The trachea was orally intubated with a 14-G cannula mounted on a blunt needle (Abbocath-T; Abbott Hospital Products Division, North Chicago, IL, USA) with a 145-degree angled tip. End-tidal CO2 was continuously monitored with a side-stream infrared CO2 analyzer (Capstar-100 Carbon Dioxide Analyzer; CWE, Ardmore, PA) interposed between the tracheal cannula and the ventilator. A conventional lead II EKG was continuously monitored. Through the left external jugular vein, a PE-50 catheter (Becton Dickinson, Sparks, MD, USA) was advanced into the right atrium for measurement of right atrial pressures. A 3-F catheter (Model C-PMS-301J; Cook Critical Care, Bloomington, IN, USA) was advanced through the right external jugular vein into the right ventricle. For blood pressure measurements within the descending aorta and PEG-20k administration, PE-50 catheters were advanced into the descending aorta from the left femoral artery and the right femoral artery respectively. […]
# [2] = test system: rat model of cardiac arrest and cardiopulmonary resuscitation; assay: Post-resuscitation myocardial function by echocardiography (CO, EF, MPI); type: in vivo, Sprague-Dawley rats; conditions: 2, 4, and 6 hours after ROSC; PEG-20k vs other 3 groups, epinephrine vs saline placebo and saline-A; p<0.05; FIG. 2
# Experimental: as §1
# [3] = test system: rat model of cardiac arrest and cardiopulmonary resuscitation; assay: Buccal microcirculation (MFI, PVD) by side-stream dark-field imaging; type: in vivo, Sprague-Dawley rats; conditions: 1, 3, and 5 hours after ROSC; PEG-20k vs other 3 groups; p<0.05; FIG. 3
# Experimental: as §1
# [4] = test system: rat model of cardiac arrest and cardiopulmonary resuscitation; assay: Duration of survival after resuscitation; type: in vivo, Sprague-Dawley rats; conditions: 6 resuscitated rats in each group
# [5] = test system: patients with SCA; conditions: cited from earlier work
# [6] = test system: patients with out-of-hospital cardiac arrest; conditions: prehospital epinephrine use; cited from earlier work
compound,measurement,setting,value
CNC[C@H](O)c1ccc(O)c(O)c1 [Epinephrine],Arrhythmia duration,[1]; after resuscitation,14.00 ± 5.35
same,Number of defibrillations,"[1]; defibrillations required for conversion to viable rhythm and ROSC, drug infused for 3 minutes after 4 minutes of precordial compression",5.50 ± 2.88
same,"PR myocardial function (CO, EF, MPI)",[2],increased the severity of PR myocardial dysfunction
same,Buccal microcirculation PVD and MFI values,[3],significantly decreased
same,Rats survived more than 24 hours,[4],one
same,Rate of ROSC vs placebo,[5],significantly higher rate of ROSC than placebo
same,Rate of survival with a favorable neurologic outcome,[5]; vs placebo group,as low as the rate in the placebo group
same,Chance of ROSC before hospital arrival,[6],increased chance of ROSC
same,Chance of survival and good functional outcomes 1 month after the event,[6],decreased chance of survival and good functional outcomes
